Test results: patent US20220008500A1, “COMPOSITIONS AND METHODS FOR TREATING HEART FAILURE” (The George Washington University, priority 2017, published 2022)
Values joined by “and” are separate entries in the source; they are usually repeats but may differ in a detail not shown here. Identical values can stand only once.

How the values were obtained:
[1] = tested on: excised Langendorff perfused hearts; experiment: Isoproterenol dose response in excised Langendorff perfused hearts (β-adrenergic stimulation); design: species or system Sprague-Dawley rats; conditions: for Contractility at the highest isoproterenol concentration / RPP at the highest isoproterenol concentration / Relaxation at the highest isoproterenol concentration / CFR at the highest isoproterenol concentration: isoproterenol 1000 nM
Description: (§1) At nine weeks of age rats were anesthetized with an IP injection of 0.2 mL Telazol and subject to isoflurane inhalation. Following cessation of pain reflexes, hearts were rapidly excised (n=26) and Langendorff perfused via the aorta at constant pressure (65 mmHg) and temperature (37° C.) with a Krebs-Henseleit solution containing (in mM) 115 NaCl, 3.3 KCl, 2.0 CaCl2, 1.4 MgSO4, 25.0 NaHCO3, 1.0 KH2PO4, 5.0 glucose, and 1.0 lactate. Perfusate was oxygenated with 95% 02-5% CO2. After a stabilization period of 10 minutes, a size 5 balloon (Harvard Apparatus) was inserted into the LV to measure isovolumic LV developed pressure (LVDP). Diastolic pressure was set to 10 mmHg and LVDP was computed as the difference between systolic and diastolic pressures. HR, LVDP, and coronary flow rate (CFR) were measured for at least 15 minutes during sinus rhythm. An isoproterenol (16504, Sigma Aldrich) dose response protocol was then administered using concentrations of 0.01, 0.1, 1, 10, 100, 1000 nM, and HR, LVDP, and CFR were measured at each concentration once function stabilized. After each study, rate pressure product (RPP), an indirect measure of LV work, was calculated as the product of HR and LVDP. Contractility and relaxation were measured as the maximum and minimum values of the first derivative of the LVP waveform, respectively, to assess inotropy and lusitropy.
Measurements in each group were compared using analysis of variance with Tukey post-hoc comparisons (Minitab 17 Statistical Software) to identify significant differences between groups. Myocyte area measurements were analyzed using fully nested ANOVA to account for both number of cells and number of animals. The isoproterenol dose response data was analyzed using a general linear model (GLM) to evaluate the group effect and the isoproterenol dose effect. Tukey post-hoc tests identified pairwise changes between groups at each isoproterenol concentration. Differences were considered significant if p<0.05.

[2] = tested on: myocardial ischemia-reperfusion; conditions: intra-cerebroventricular administration, rats with daily restraint stress; cited from earlier work
[3] = biological target: T1, DREADDs in PVN OXT neurons (Homo sapiens, UniProt P20309, A239G/Y149C)
Description: (§2) In this system one viral vector expresses Cre recombinase under an OXT promotor. The second vector expresses the excitatory hM3Dq DREADDs22. This is a Cre-dependent vector that has silencing double-floxed inverse open reading frames, which insures expression is only in OXT neurons that selectively express Cre. In each animal, 30-50 nl containing both viral vectors was selectively microinjected into the PVN over a 20 minutes period at 1 week of age.
Sprague-Dawley rats at 4 weeks of age that had DREADDS expression in PVN oxytocin neurons were anesthetized (isoflurane) and implanted with a telemetry device (HDX-11, DSI) with the pressure catheter inserted into the descending abdominal aorta to measure blood pressure (BP). The ECG leads of the device were inserted subcutaneously to measure HR. Rats were allowed to recover from this surgery for a week, followed by IP saline injections for 3 days to acclimate the animals to IP injections. […] One injection of one of the three solutions was administered each day on consecutive days.

IL-1β = experiment: Western blot of LV myocardium, IL-1β; format: in vivo, Sprague-Dawley rats; conditions: CNO 1 mg/kg IP daily
Description: (§3) TAC+OXT and OXT NORM animals received intraperitoneal (IP) injections of CNO (1 mg/kg) daily, beginning at 5 weeks of age until the animal was sacrificed.
(§4) Samples of LV myocardium (n=5-6/group) were flash frozen in liquid nitrogen and stored at −80° C. For western blot analysis of protein expression, samples were thawed and homogenized using the Qproteome Mammalian Protein Prep Kit (Qiagen) in tubes containing metallic beads. Samples were then centrifuged at 14,000 g for 20 minutes and protein concentrations were determined by the Pierce BCA Protein Assay (Thermo Scientific). Laemmli buffer (Bio Rad) with 10% 2-mercaptoethanol (Sigma-Aldrich) was added to the samples and samples were heated to 98° C. Equal protein concentration was loaded into wells containing 4-20% Mini-PROTEAN® TGX™ Gels (Bio Rad). The samples were then run at 100V for 1-1.5 hours to separate proteins by electrophoresis.
(§5) After electrophoresis, the samples were transferred to PVDF membranes for 10 min at 25V using the Trans-Blot® Turbo™ Transfer System (Bio Rad). The membranes were blocked with 5% milk for 18 hours. […] Band intensities for collagen III and IL-10 were measured using ImageJ and normalized to the corresponding band intensity for GAPDH.

collagen III = experiment: Western blot of LV myocardium, collagen III; format: in vivo, Sprague-Dawley rats; conditions: CNO 1 mg/kg IP daily
Description: as §3, §4, §5

[4] = biological target: T1, DREADDs in PVN OXT neurons; experiment: Ex vivo cardiac function of excised Langendorff perfused hearts during sinus rhythm; design: expressed in transfected cells; host or cells: PVN oxytocin neurons of Sprague-Dawley rats, transduced in vivo with a Cre-dependent (double-floxed inverse ORF) viral vector plus an OXT-promoter Cre vector; species or system Sprague-Dawley rats
Text: (§6) Pressure overload induced LV hypertrophy was initiated in male Sprague-Dawley rats using a minimally invasive trans-ascending aortic constriction (TAC) procedure. Rats at one week of age were aestheticized by hypothermia and underwent TAC surgery. A 0.5 cm incision was made at the level of the chest, the chest was opened and the thymus was retracted to reveal the aorta. A 4-0 silk suture was passed around the ascending aorta, and with a 25-gauge needle temporarily placed adjacent to the aorta, the suture was tied around both the aorta and needle (TAC and TAC+OXT groups). The needle was then removed, leaving the constricting suture around the aorta. Buprenorphine was applied as an analgesic. Successful constriction was confirmed upon examination of the aorta after each animal was sacrificed.
as §2, with “Additionally, selective activation of DREADDs in PVN OXT neurons decreases both mean arterial pressure and HR in telemetry instrumented conscious unrestrained animals. […] In this” for “In this”
as §3, §1

PVN OXT neurons = experiment: Firing of PVN OXT neurons after CNO injection; format: in vivo; conditions: DREADDs expressed in PVN OXT neurons
Text: as §2, with “Additionally, selective activation of DREADDs in PVN OXT neurons decreases both mean arterial pressure and HR in telemetry instrumented conscious unrestrained animals. […] In this” for “In this”

[5] = biological target: T1, DREADDs in PVN OXT neurons; experiment: Anatomic measurements and histology of hearts after chronic activation of PVN OXT neurons; format: in vivo, Sprague-Dawley rats; design: expressed in transfected cells; host or cells: PVN oxytocin neurons of Sprague-Dawley rats, transduced in vivo with a Cre-dependent (double-floxed inverse ORF) viral vector plus an OXT-promoter Cre vector
Text: as §6
as §2, with “Additionally, selective activation of DREADDs in PVN OXT neurons decreases both mean arterial pressure and HR in telemetry instrumented conscious unrestrained animals. […] In this” for “In this”
as §3
In a subset of animals, hearts were excised and cannulated via the aorta, flushed of blood, and weighed after clearing fluid from the chambers. The hearts were cut transversely, halfway between the apex and base, and the thickness of the LV free wall and septum were measured. The tissue was then preserved in 10% formalin for histology. Other hearts from each group were cannulated, flushed with high potassium solution, and then formalin-fixed via retrograde perfusion at constant pressure (60 mmHg). The hearts were cut longitudinally and preserved in 10% formalin for histology. All heart specimens were stained (H&E and Trichrome) to quantify cell size and collagen deposition. Average myocyte transverse cross-sectional (CS) area (μm^2) and the amount of fibrosis (μm^2) observed in a histological section were measured using ImageJ for at least three transverse slices from each heart.

[6] = acute activation of PVN OXT neurons by CNO, n=4
[7] = awake rats with DREADDs in PVN OXT neurons, CNO 1 mg/kg IP, acute
[8] = hearts of TAC rats given CNO 1 mg/kg IP daily
[9] = hearts of rats without TAC (OXT NORM) given CNO daily
[10] = hearts of TAC rats given CNO daily
[11] = TAC rats with DREADDs, CNO 1 mg/kg IP daily, 8 weeks post-TAC, listed as TAC + OXT
[12] = TAC rats with DREADDs, CNO 1 mg/kg IP daily, 8 weeks post-TAC, listed as TAC+OXT
[13] = rats without TAC (OXT NORM), CNO 1 mg/kg IP daily

T1 sequence (P20309 whole entry Y149C/A239G): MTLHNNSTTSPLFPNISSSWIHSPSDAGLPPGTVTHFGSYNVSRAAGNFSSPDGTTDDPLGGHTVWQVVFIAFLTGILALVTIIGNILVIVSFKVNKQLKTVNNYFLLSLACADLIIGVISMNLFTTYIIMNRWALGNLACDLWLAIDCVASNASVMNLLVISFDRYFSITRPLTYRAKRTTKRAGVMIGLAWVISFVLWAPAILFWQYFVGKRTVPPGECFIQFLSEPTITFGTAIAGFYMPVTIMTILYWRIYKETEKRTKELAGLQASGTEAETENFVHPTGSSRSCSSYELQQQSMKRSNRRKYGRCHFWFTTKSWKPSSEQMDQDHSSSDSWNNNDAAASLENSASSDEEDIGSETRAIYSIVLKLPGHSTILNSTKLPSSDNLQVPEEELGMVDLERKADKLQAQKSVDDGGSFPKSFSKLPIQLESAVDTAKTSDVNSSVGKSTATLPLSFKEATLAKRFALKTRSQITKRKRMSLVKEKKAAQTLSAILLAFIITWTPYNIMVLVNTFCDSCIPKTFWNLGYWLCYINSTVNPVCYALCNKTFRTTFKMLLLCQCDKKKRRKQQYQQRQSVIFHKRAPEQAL

CC(C)NCC(O)c1ccc(O)c(O)c1 (stereo not shown) [isoproterenol]
Contractility at the highest isoproterenol concentration ([1]; Control hearts): 7,164±788 mmHg/s
RPP at the highest isoproterenol concentration ([1]; Control hearts): 52,741±14,328 mmHg*bpm
Relaxation at the highest isoproterenol concentration ([1]; Control hearts): −5,402±484 mmHg/s
CFR at the highest isoproterenol concentration ([1]; Control hearts, baseline 13.3±2.4 mL/min): 25.3 ± 3.7 mL/min
CFR, average for all isoproterenol concentrations ([1]; untreated TAC hearts): 8.4 ± 0.8 mL/min
Maximum contractility rate in the isoproterenol protocol ([1]; untreated TAC hearts): 2,322±364 mmHg/s
Minimum relaxation rate in the isoproterenol protocol ([1]; untreated TAC hearts): −2,023±361 mmHg/s
RPP at the highest isoproterenol concentration ([1]; untreated TAC hearts): 21,787±3998 mmHg*bpm

CC[C@H](C)[C@@H]1NC(=O)[C@H](Cc2ccc(O)cc2)NC(=O)[C@@H](N)CSSC[C@@H](C(=O)N2CCC[C@H]2C(=O)N[C@@H](CC(C)C)C(=O)NCC(N)=O)NC(=O)[C@H](CC(N)=O)NC(=O)[C@H](CCC(N)=O)NC1=O [oxytocin]
Cardiac injury following ischemia reperfusion [2]: reduced the cardiac injury

C[N+]1([O-])CCN(C2=Nc3cc(Cl)ccc3Nc3ccccc32)CC1 [CNO, clozapine N-oxide]
Effect on BP (figure legend) [3, 6]: significantly reduced BP
Effect on HR (figure legend) [3, 6]: significantly reduced HR
Average reduction of HR [3, 7]: 56 bpm
Average reduction of blood pressure [3, 7]: 13 mmHg
Blood pressure after CNO ([3]; awake rats with DREADDs, CNO 1 mg/kg IP, before: 105.8±1.9 mmHg): 93.4±1.5 mmHg
HR after CNO ([3]; awake rats with DREADDs, CNO 1 mg/kg IP, before: 475.4±15.9 bpm): 419±12.4 bpm
IL-1β expression (band intensity normalized to GAPDH) (IL-1β; TAC rats with DREADDs): 0.50±0.2 change from Control
IL-1β expression (band intensity normalized to GAPDH) (IL-1β; rats without TAC (OXT NORM)): 0.21±0.14 change from Control
Collagen III expression (band intensity normalized to GAPDH) (collagen III; TAC rats with DREADDs): 1.95±0.7 times Control
Collagen III expression (band intensity normalized to GAPDH) (collagen III; rats without TAC (OXT NORM)): 1.31±0.5 change from Control
LV contractility (maximum of first derivative of LVP) [4, 8]: 3,124±383 mmHg/s
LV developed pressure (LVDP) [4, 8]: 126±14 mmHg
LV relaxation (minimum of first derivative of LVP) [4, 8]: −2,203±231 mmHg/s
Rate pressure product (RPP) [4, 8]: 26,874±4,036 mmHg*bpm
Coronary flow rate (CFR) ([4]; hearts of TAC rats given CNO 1 mg/kg IP daily, baseline (no isoproterenol), listed as TAC+OXT): 13.8 ± 2.9 mL/min and 14 ± 2.9 mL/min
Coronary flow rate (CFR) [4, 9]: 16 ± 1.9 mL/min
LV contractility (maximum of first derivative of LVP) [4, 9]: 4,631±931 mmHg/s
LV developed pressure (LVDP) [4, 9]: 127±16 mmHg
LV relaxation (minimum of first derivative of LVP) [4, 9]: −2,926±397 mmHg/s
Rate pressure product (RPP) [4, 9]: 26,978±2,274 mmHg*bpm
HR response to increasing isoproterenol concentration ([1]; hearts of TAC rats given CNO daily, compared with Control and TAC hearts): greatest increase in HR
CFR at the highest isoproterenol concentration [1, 10]: 15 ± 1.9 mL/min
Contractility at the highest isoproterenol concentration [1, 10]: 3,936±589 mmHg/s
RPP at the highest isoproterenol concentration [1, 10]: 38,017±4,303 mmHg*bpm
Relaxation at the highest isoproterenol concentration [1, 10]: −3,258±495 mmHg/s
Firing of PVN OXT neurons (PVN OXT neurons): increases the firing of PVN OXT neurons for at least one hour
Myocyte area (transverse cross-sectional area) ([5]; TAC rats with DREADDs, CNO 1 mg/kg IP daily from 5 weeks of age, 8 weeks post-TAC, listed as TAC + OXT): 584 ± 51^+ μm^2
Myocyte area (transverse cross-sectional area) ([5]; TAC rats with DREADDs, CNO 1 mg/kg IP daily from 5 weeks of age, 8 weeks post-TAC, listed as TAC+OXT): 601±23 μm^2
Body weight ([5]; TAC rats with DREADDs, CNO 1 mg/kg IP daily, 8 weeks post-TAC): 298 ± 17^ g
Fibrosis [5, 11]: 2407 ± 723^+ μm^2
Heart weight [5, 11]: 1.75 ± 0.21 g
LV wall thickness (LV free wall) [5, 11]: 5.53 ± 0.34 mm
Septum thickness [5, 11]: 3.99 ± 0.14 mm
Fibrosis [5, 12]: 2407±723 μm^2
Heart weight [5, 12]: 1.74 ± 0.2 g
LV wall thickness (LV free wall) [5, 12]: 5.22±0.3 mm
Septum thickness [5, 12]: 3.9±0.2 mm
Myocyte area (transverse cross-sectional area) ([5]; rats without TAC (OXT NORM) with DREADDs, CNO 1 mg/kg IP daily): 368±20 μm^2 and 365 ± 90 μm^2
Body weight [5, 13]: 357 ± 24 g
Fibrosis [5, 13]: 918±112 μm^2
Heart weight [5, 13]: 2.19 ± 0.2 g and 2.19 ± 0.17 g
LV wall thickness (LV free wall) [5, 13]: 3.69±0.1 mm and 3.69 ± 0.10 mm
Septum thickness [5, 13]: 3.18±0.1 mm and 3.18 ± 0.12 mm
